Measurements reported in the NIST ThermoML archive (doi:10.1016/j.jct.2005.03.023).
± gives the expanded uncertainty stated by the source.

Experiment: mn = molality of the nth substance listed, in mol/kg
Conditions: 101.3 kPa, Liquid

Which mass density (278.15 K, m1 = 0.25) does the source give for O=C[C@H](O)[C@@H](O)[C@H](O)CO [D-xylose] + O here?
The mass density was 1013.81 ± 0.39 kg/m3.

What about the mass density (278.15 K, m1 = 0.4) of the same compound?
Its mass density is 1021.78 ± 0.42 kg/m3.

What about the mass density (278.15 K, m1 = 0.55) of the same compound?
The mass density was 1029.49 ± 0.45 kg/m3.

What about the mass density (278.15 K, m1 = 0.7) of the same compound?
The mass density was 1036.97 ± 0.48 kg/m3.

What about the mass density (278.15 K, m1 = 0.85) of the same compound?
Its mass density is 1044.24 ± 0.51 kg/m3.

What about the mass density (278.15 K, m1 = 1) of the same compound?
Its mass density is 1051.27 ± 0.54 kg/m3.

And the mass density (288.15 K, m1 = 0.25)?
Its mass density is 1012.76 ± 0.38 kg/m3.

What about the mass density (288.15 K, m1 = 0.4) of the same compound?
The mass density was 1020.47 ± 0.41 kg/m3.

And the mass density (288.15 K, m1 = 0.55)?
Its mass density is 1028.02 ± 0.45 kg/m3.

And the mass density (288.15 K, m1 = 0.7)?
The mass density was 1035.37 ± 0.48 kg/m3.

And the mass density (288.15 K, m1 = 0.85)?
The mass density was 1042.46 ± 0.51 kg/m3.

What about the mass density (288.15 K, m1 = 1) of the same compound?
The mass density was 1049.35 ± 0.53 kg/m3.

And the mass density (298.15 K, m1 = 0.25)?
The mass density was 1010.39 ± 0.37 kg/m3.

What about the mass density (298.15 K, m1 = 0.4) of the same compound?
Its mass density is 1018.06 ± 0.4 kg/m3.

And the mass density (298.15 K, m1 = 0.55)?
The mass density was 1025.49 ± 0.43 kg/m3.

And the mass density (298.15 K, m1 = 0.7)?
Its mass density is 1032.72 ± 0.47 kg/m3.

And the mass density (298.15 K, m1 = 0.85)?
Its mass density is 1039.74 ± 0.49 kg/m3.

And the mass density (298.15 K, m1 = 1)?
The mass density was 1046.52 ± 0.52 kg/m3.

What about the mass density (308.15 K, m1 = 0.25) of the same compound?
The mass density was 1007.15 ± 0.36 kg/m3.

And the mass density (308.15 K, m1 = 0.4)?
Its mass density is 1014.77 ± 0.39 kg/m3.

And the mass density (308.15 K, m1 = 0.55)?
The mass density was 1022.12 ± 0.42 kg/m3.

And the mass density (308.15 K, m1 = 0.7)?
The mass density was 1029.24 ± 0.45 kg/m3.

What about the mass density (308.15 K, m1 = 0.85) of the same compound?
Its mass density is 1036.18 ± 0.48 kg/m3.

What about the mass density (308.15 K, m1 = 1) of the same compound?
The mass density was 1042.87 ± 0.51 kg/m3.

What about the mass density (318.15 K, m1 = 0.25) of the same compound?
The mass density was 1003.29 ± 0.34 kg/m3.

What about the mass density (318.15 K, m1 = 0.4) of the same compound?
The mass density was 1010.79 ± 0.38 kg/m3.

What about the mass density (318.15 K, m1 = 0.55) of the same compound?
Its mass density is 1018.05 ± 0.41 kg/m3.

And the mass density (318.15 K, m1 = 0.7)?
Its mass density is 1025.13 ± 0.44 kg/m3.

And the mass density (318.15 K, m1 = 0.85)?
Its mass density is 1031.95 ± 0.46 kg/m3.

What about the mass density (318.15 K, m1 = 1) of the same compound?
Its mass density is 1038.63 ± 0.49 kg/m3.
